The results in this text go back to paper PMC9024893, “1,2,4-Trioxolane and 1,2,4,5-Tetraoxane Endoperoxides against Old-World Leishmania Parasites: In Vitro Activity and Mode of Action” (Pharmaceuticals, 2022).

Each structure is given as a SMILES string. Read-outs that look alike come from different tables or passages of the source.

Series [1] deals with L. donovani BD14 promastigotes. Kind of series: Promastigotes susceptibility assay (MTT), L. donovani. In kind it is cell-based. The conditions noted are these: Leishmania donovani, read-out: IC50 ± SD, L. donovani promastigotes. How it is done: (§1) Promastigote forms of strains of L. infantum (MHOM/PT/1988/IMT151) and L. donovani (MHOM/BD/2006/BD14) were cultured at 24 °C ± 1 °C in M199 medium (Sigma) supplemented with 20% foetal bovine serum (FBS, Sigma) and 1% penicillin-streptomycin (Sigma). L. infantum strain belongs to IHMT, Portugal cryobank collection and the L. donovani strain was kindly provided by Dr. Katrin Kuhls, Technical University of Applied Sciences Wildau, Germany. Promastigotes used for the experiments had 7 to 12 in vitro passages in culture after isolation from mice, in order to keep virulence, and were used when the stationary phase of growth was reached (day 5 to 6), corresponding to the highest promastigotes density.
(§2) For the determination of the antileishmanial activity and IC50, promastigotes of L. infantum and L. donovani were plated in 96-well flat bottom culture plates at a concentration of 5 × 10^6 parasites/mL and incubated with six serial concentrations of each compound (Table 3), in four replicates, including the control drugs, amphotericin B, miltefosine and pentamidine. One untreated control (parasites with M199 medium plus 0.5% DMSO as vehicle solution) and one blank (M199 medium alone) were also plated out in quadruplicate. After 48 h incubation at 24 °C ± 1 °C, the inhibitory activity of the compounds was evaluated using the MTT, as previously described, with an additional 4 h incubation at 36 °C. Results were expressed in terms of percentage of parasite viability relative to nontreated control and IC50 was calculated fitting the data as a non-linear regression with variable slope using a dose-response inhibitory model, in the GraphPad Prism V 8.0 program. Each compound was tested in three independent assays. […]

The nature of series [2]: Cytotoxicity assay (MTT), PMA-differentiated THP-1 cell line. It counts as cell-based. The conditions noted are these: human. How it is done: (§3) Adherent BALB/c mouse macrophage cell line J774A.1 (ATCC® TIB 67™) and suspension human acute monocytic leukemic cell line THP-1 (ATCC® TIB-202™) were purchased from DSMZ, Germany were cultured and maintained in DMEM medium (Gibco) and RPMI 1640 (Sigma), respectively, supplemented with 10% FBS, 1% penicillin-streptomycin (Sigma) and L-glutamine 200 mM (Sigma), at 37 °C, 5% CO2.
(§4) Cell lines J774A.1 and THP-1 were used to estimate CC50 of the peroxides. Cells were plated in 96-well flat bottom culture plates (VWR) at 5 × 10^5 cells/mL. The monocytic cell line THP-1 was differentiated in RPMI medium with phorbol myristate acetate (PMA) (25 ng/mL; Sigma) for 24 h, followed by a washing step with RPMI medium. Six serial concentrations of the compounds (Table 3) were added in four replicates and the plates were incubated at 37 °C ± 1 °C, 5% CO2 for 48 h. An untreated control (cells in DMEM or RPMI medium plus 0.5% DMSO as vehicle) and blank (medium alone) were plated out in quadruplicate. After the incubation period, 20 µL/well of MTT [3-(4,5-dimethylthiazol-2-yl)-2,5-diphenyltetrazolium bromide] was added to a final concentration of 5 µg/mL in 1× phosphate-buffered saline (PBS, Merck), with an additional 4 h incubation at 36 °C, as previously described. The formazan salts were resuspended in 2-propanol (Merck) and the cell viability was determined by measuring absorbance with a Synergy ™HTX Multi Mode Microplate Reader at 595 nm (Dynex Technologies). The CC50 values were calculated fitting the data as a non-linear regression with variable slope using a dose-response inhibitory model, in the GraphPad Prism V 8.0 program. Each compound was tested in three independent assays.

Series [3] deals with L. infantum IMT151 promastigotes. Kind of series: Promastigotes susceptibility assay (MTT), L. infantum. The settings on record: Leishmania infantum, read-out: IC50 ± SD, L. infantum promastigotes. In kind it is cell-based. As to the method: as §1, §2
A short description of series [4]: Cytotoxicity assay (MTT), J774A.1 cell line. In kind it is cell-based. The conditions noted are these: mouse. How it is done: as §3, §4
Series [5] has as its system L. infantum IMT151 intracellular amastigotes. Kind of series: Intracellular amastigotes assay in J774A.1 macrophages, L. infantum. The conditions noted are these: Leishmania infantum, read-out: IC50 ± SD, L. infantum intracellular amastigotes. In kind it is cell-based. How it is done: (§5) The intracellular assay using the macrophage J774A.1 cell line was performed with the compounds that presented best SI on the promastigote’s susceptibility assay. J774A.1 cells were adjusted to 2.5 × 10^5 cells/mL in supplemented DMEM medium. 200 μL/well of the cell suspension was placed in 16 well Lab Tek culture glass slides (Nunc), and incubated at 37 °C ± 1 °C, 5% CO2, for 3 h, to enable the cells to adhere to the slides. After a washing step with DMEM to discard non-attached cells, the cells were infected with 2.5 × 10^6 cells/mL promastigotes in a 10:1 parasite-host cell proportion for 24 h. Compounds and control drugs were added in two replicates of six serial concentrations (Table 3). As negative control, macrophages were cultivated in medium and DMSO, as vehicle solution (0.5% v/v). Slides were incubated for 48 h at the same temperature. After a washing step with 1× PBS (Sigma), slides were fixed and stained, and the infection index was calculated according to [34] by counting the number of intracellular amastigotes per 100 macrophages, in treated and untreated cells. Two independent experiments were performed to determine the amastigotes IC50 of each compound, which was calculated by fitting the data as a non-linear regression with variable slope using a dose-response inhibitory model, in the GraphPad Prism V 8.0 program. SI was determined as described above.

Series [6] concerns L. donovani BD14 intracellular amastigotes. Kind of series: Intracellular amastigotes assay in J774A.1 macrophages, L. donovani. The conditions noted are these: Leishmania donovani, read-out: IC50 ± SD, L. donovani intracellular amastigotes. In kind it is cell-based. As to the method: as §5
The test system of series [7] is L. infantum promastigotes. Kind of series: Promastigotes DNA fragmentation (agarose gel). It counts as cell-based, Leishmania infantum. The settings on record: IC50 concentrations, 24 h. As to the method: 2 mM H2O2 was used as DNA damage inductor and non-treated cells were used as control. After centrifugation (10 min, 800× g) DNA was extracted using a commercial extraction kit (High Template DNA Preparation Kit, Roche, Germany), according to the manufacturer’s instructions.

[8] abbreviates: 48 h incubation, MTT, read-out: CC50 ± SD, THP-1 Cell Line.
Where [9] appears, read: 48 h incubation, MTT, read-out: CC50 ± SD, J774A.1 Cell Line.
Where [10] appears, read: PMA-differentiated THP-1 cells, 48 h incubation, MTT, read-out: CC50 ± SD, THP-1 Cell Line.
Where [11] appears, read: J774A.1 macrophage cells, 48 h incubation, MTT, read-out: CC50 ± SD, J774A.1 Cell Line.
[12] abbreviates: J774.A1, 48 h incubation, J774A.1 host cells.

As to `O=C1CCC2(CC1)OOC1(O2)C2CC3CC(C2)CC1C3` (stereo not drawn) [LC50, Dispiro[cyclohexane-1,3'-[1,2,4]trioxolane-5',2''-tricyclo[3.3.1.13,7]decan]-4-one], the IC50 was 354 ± 8.4 µM in series [1] (48 h) and 378.9 ± 2.8 µM in series [3] (48 h). Moreover, the CC50 at 48 h in series [2] (setting [8]) was determined as 713 ± 18.4 µM; in series [4] (setting [9]), 519 ± 140 µM.

As for `OCC1CCC2(CC1)OOC1(O2)C2CC3CC(C2)CC1C3` (stereo not drawn) [LC93], the IC50 in series [1] (48 h incubation, MTT) turned out to be 153 ± 22.4 µM; in series [3] (48 h incubation, MTT) it was 435 ± 22.7 µM. Also, the values for the CC50 at 48 h in series [2] (setting [10]) and in series [4] (setting [11]) were 185 ± 16.1 µM and 12 ± 0.5 µM, respectively.

On to `O=S1(=O)N=C(OCC2CCC3(CC2)OOC2(O3)C3CC4CC(C3)CC2C4)c2ccccc21` (stereo not drawn) [LC129], for which the CC50 at 48 h in series [2] (setting [10]) came to 356 ± 31.4 µM; in series [4] (setting [11]), 323 ± 24.5 µM. Also, the IC50 in series [3] (48 h incubation, MTT) worked out at 266 ± 13.3 µM.

With `Cn1nnc(NCC2CCC3(CC2)OOC2(O3)C3CC4CC(C3)CC2C4)n1` (stereo not drawn) [LC131], the IC50 was 124 ± 19 µM in series [1] (48 h incubation, MTT) and 321 ± 11.8 µM in series [3] (48 h incubation, MTT). Further, the values for the CC50 at 48 h in series [2] (setting [10]) and in series [4] (setting [11]) were 78.2 ± 14.1 µM and 34.1 ± 14.5 µM, respectively.

As for `c1ccc(-n2nnnc2OCC2CCC3(CC2)OOC2(O3)C3CC4CC(C3)CC2C4)cc1` (stereo not drawn) [LC132], the IC50 in series [1] (48 h incubation, MTT) was determined as 14.3 ± 5.5 µM; in series [5] (setting [12]), 13.2 ± 5.2 µM; in series [6] (setting [12]), 9.4 ± 0.1 µM; in series [3] (48 h incubation, MTT), 13 ± 1.7 µM. For the same molecule, the “genomic DNA fragmentation” value in series [7] is recorded as “did not produce DNA fragmentation”. The CC50 at 48 h in series [2] (setting [10]) came to 99.8 ± 16.4 µM; in series [4] (setting [11]), 45.8 ± 19.9 µM.

For `C1C2CC3CC1CC(C2)C31OOC2(CCC(Nc3nnn[nH]3)CC2)O1` (stereo not drawn) [LC136, N-1H-1,2,3,4-Tetraazol-5-yl-dispiro[cyclohexane-1,3'-[1,2,4]trioxolane-5',2''-tricyclo[3.3.1.13,7]decan]-4-ylamine], the IC50 was 232 ± 28.4 µM in series [1] (48 h incubation, MTT) and 434 ± 6.4 µM in series [3] (48 h incubation, MTT). Also, the 50% cytotoxic concentration (CC50) at 48 h was found to be 250 ± 4.1 µM in series [2] (setting [10]) and 113 ± 13.8 µM in series [4] (setting [11]).

With `C1CCC2(CC1)OOC1(OO2)C2CC3CC(C2)CC1C3` [LC137], the IC50 was determined as 143 ± 16.5 µM in series [1] (48 h); 168 ± 8.9 µM in series [5] (J774.A1, 48 h); 88.3 ± 14.2 µM in series [6] (J774.A1, 48 h); 137.1 ± 0.2 µM in series [3] (48 h). The CC50 at 48 h in series [2] (setting [8]) was 3569 ± 22 µM; in series [4] (setting [9]) it was 443 ± 44 µM.

As for `C1CC2(CCN1)OOC1(OO2)C2CC3CC(C2)CC1C3` [LC139], the IC50 worked out at 507 ± 53.3 µM in series [1] (48 h) and 472 ± 39.2 µM in series [3] (48 h). Further, the CC50 at 48 h in series [2] (setting [8]) was found to be 115 ± 11.4 µM; in series [4] (setting [9]) it was 913 ± 70.7 µM.

Take `O=C1CCC2(CC1)OOC1(OO2)C2CC3CC(C2)CC1C3` [LC140]: the IC50 came to 460 ± 38.3 µM in series [1] (48 h incubation, MTT) and 258 ± 6.4 µM in series [3] (48 h incubation, MTT). Further, the CC50 at 48 h in series [2] (setting [10]) worked out at 1400 ± 76 µM; in series [4] (setting [11]), 678 ± 29.9 µM.

Take `OCC1CCC2(CC1)OOC1(OO2)C2CC3CC(C2)CC1C3` (stereo not drawn) [LC146]: the IC50 was 793 ± 37.2 µM in series [1] (48 h incubation, MTT) and 492 ± 22.7 µM in series [3] (48 h incubation, MTT). Also, the CC50 at 48 h in series [2] (setting [10]) was found to be 3220 ± 72 µM; in series [4] (setting [11]), 1465 ± 13 µM.

Consider `C1C2CC3CC1CC(C2)C31OOC2(CCC(Nc3nnn[nH]3)CC2)OO1` (stereo not drawn) [LC163], for which the IC50 worked out at 532 ± 105 µM in series [1] (48 h incubation, MTT) and 190 ± 21.6 µM in series [3] (48 h incubation, MTT). The figures for the CC50 at 48 h in series [2] (setting [10]) and in series [4] (setting [11]) were 753 ± 90.3 µM and 474 ± 83.5 µM, respectively.

On to `CCCCCCCCCCCCCCCCOP(=O)([O-])OCC[N+](C)(C)C` [Miltefosine, reference compound], for which the IC50 in series [1] (48 h incubation, MTT) amounted to 24.2 ± 10 µM; in series [5] (setting [12]) it was 16.8 ± 11.7 µM; in series [6] (setting [12]) it was 13.3 ± 3 µM; in series [3] (48 h incubation, MTT), 149 ± 3.5 µM. Moreover, the CC50 at 48 h came out at 100 ± 12.1 µM in series [2] and 94.4 ± 17.3 µM in series [4].

One may read the IC50 as the concentration needed to halve the response being measured. Broadly, the CC50 is the concentration that lowers cell viability or growth by half.
